Consider three compounds from ChEMBL document CHEMBL4840357, “Functionalized Dioxonaphthoimidazoliums: A Redox Cycling Chemotype with Potent Bactericidal Activities against Mycobacterium tuberculosis” (J Med Chem, 2021).

Structures are written as SMILES. Activity calls are given as the source filed them. The calls are words filed in the database; no cut-off is given here.

Experiment [1] relates to Mycobacterium tuberculosis H37Rv. Nature of the experiment: Activation of Mycobacterium tuberculosis NDH-2 overexpressed in mc24517 inverted membrane vesicles assessed as increase in NADH oxidation. Particulars: Membrane vesicle, filed as activator. In kind it is cell membranes.
Experiment [2] deals with Mycobacterium tuberculosis variant bovis BCG. The experiment can be described thus: Antimycobacterial activity against Mycobacterium bovis BCG ATCC 35734 incubated for 5 days by broth dilution method. The format is functional. The following applies: ATCC 35734, 120 h, time 5 day. (In general: Broth dilution looks for growth in wells or tubes with falling amounts of substance.)

Experiment [3] has the same test system. Nature of the experiment: Bactericidal activity against Mycobacterium bovis BCG ATCC 35734 incubated for 5 days by broth dilution method. In kind it is functional. The following applies: ATCC 35734, 120 h, time 5 day, read-out: MBC99.9.
Experiment [4] shares this test system. Nature of the experiment: Bactericidal activity against Mycobacterium bovis BCG ATCC 35734 assessed as reduction in colony forming count at 4 times MIC measured over 28 days by time-kill assay. Particulars: time 28.0 day. The format is functional, organism-based.
Experiment [5] has the same test system. Nature of the experiment: Bactericidal activity against Mycobacterium bovis BCG ATCC 35734 assessed as fold reduction in viability at 4 times MIC measured over 14 days by time-kill assay. The format is functional. Particulars: time 14 day.
Experiment [6] has the same test system. The experiment can be described thus: Bactericidal activity against Mycobacterium bovis BCG ATCC 35734 assessed as reduction in colony forming unit at 8 times MIC measured after 21 days by time-kill assay. Particulars: time 21.0 day. The format is functional, organism-based.
Experiment [7] has the same test system. The experiment can be described thus: Ratio of MIC for antimycobacterial activity against Mycobacterium bovis BCG ATCC 35734 in absence of glycerol to MIC for antimycobacterial activity against Mycobacterium bovis BCG ATCC 35734 in presence of glycerol. The format is functional.
Experiment [8] shares this test system. The experiment can be described thus: Bactericidal activity against Mycobacterium bovis BCG ATCC 35734 assessed as fold reduction in viability at 40 times MIC90 preincubated for 20 days under oxygen deprived condition followed by compound addition and measured after 5 days. The format is functional. The following applies: time 5 day.
The test system of experiment [9] is Cell membrane. The experiment can be described thus: Induction of cell membrane depolarization in Mycobacterium bovis BCG ATCC 35734 at 4 times MIC after 8 hrs by DiOC2 dye based flourescence assay. The format is functional, subcellular. Particulars: Mycobacterium tuberculosis variant bovis BCG.
Experiment [10] relates to Cell membrane. The experiment can be described thus: Induction of membrane permeabilization in Mycobacterium bovis BCG ATCC 35734 at 4 times MIC after 8 hrs by SYTO9 and PI staining based fluorescence assay. In kind it is functional, subcellular. Particulars: Mycobacterium tuberculosis variant bovis BCG.
In experiment [11] the test system is Cell membrane. The experiment can be described thus: Induction of cell envelope stress in Mycobacterium bovis BCG ATCC 35734 expressing piniBAC RFP at 100 times MIC90 after 24 hrs by fluorescence analysis. The format is functional, subcellular. The following applies: Mycobacterium tuberculosis variant bovis BCG.
Experiment [12] deals with Mycobacterium tuberculosis variant bovis BCG. Nature of the experiment: Induction of ROS generation in Mycobacterium bovis BCG ATCC 35734 after 90 mins by cellrox-green reagent based assay. The format is functional, organism-based.
The test system is the same in experiment [13]. Nature of the experiment: Induction of ROS generation in Mycobacterium bovis BCG ATCC 35734 at 2 times of MIC90 measured upto 24 hrs by cellrox-green reagent based assay. Particulars: time hrs <=24. In kind it is functional, organism-based.
For experiment [14] the test system is unchanged. Nature of the experiment: Induction of oxidative stress Mycobacterium bovis BCG-pfurA-RFP ATCC 35734 assessed as activation of pfurA after 24 hrs by fluorescence assay. In kind it is functional, organism-based.
The test system is the same in experiment [15]. Nature of the experiment: Antimycobacterial activity against Mycobacterium bovis BCG ATCC 35734 carrying katG loss-of-function mutant assessed fold reduction in MIC at 1 to 2 times of MIC90 incubated for 5 days. In kind it is functional. The following applies: time 5 day.
Experiment [16] shares this test system. The experiment can be described thus: Antimycobacterial activity against Mycobacterium bovis BCG ATCC 35734 carrying katG loss-of-function mutant assessed fold reduction in MIC at 1 to 2 times of MIC90 incubated for 5 days under liquid medium. In kind it is functional, organism-based. Particulars: time 5.0 day.
For experiment [17] the test system is unchanged. Nature of the experiment: Antimycobacterial activity against Mycobacterium bovis BCG ATCC 35734 carrying katG loss-of-function mutant assessed fold reduction in MIC at 1 to 2 times of MIC90 incubated for 5 days under solid agar medium. The format is functional, organism-based. The following applies: time 5.0 day.
The test system is the same in experiment [18]. The experiment can be described thus: Bactericidal activity against Mycobacterium bovis BCG ATCC 35734 assessed as reduction in colony forming unit at 0.5 to 1 times MIC90 incubated for 5 days. In kind it is functional, organism-based. Particulars: time 5.0 day.
The test system is the same in experiment [19]. Nature of the experiment: Bactericidal activity against Mycobacterium bovis BCG ATCC 35734 at 0.5 to 1 times MIC90 incubated for 5 days in presence of N-acetylcysteine. In kind it is functional, organism-based. Particulars: time 5.0 day.
Experiment [20] shares this test system. Nature of the experiment: Bactericidal activity against Mycobacterium bovis BCG ATCC 35734 at 0.5 to 1 times MIC90 incubated for 5 days in presence of TEMPO. In kind it is functional, organism-based. Particulars: time 5.0 day.
Experiment [21] shares this test system. The experiment can be described thus: Bactericidal activity against Mycobacterium bovis BCG ATCC 35734 at 0.5 to 1 times MIC90 incubated for 5 days in presence of thiourea. The format is functional, organism-based. The following applies: time 5.0 day.

For `CCCCCCCCn1c2c([n+](CCCC)c1C)C(=O)c1ccccc1C2=O.[Br-]`, the fold change (FC) came to 4.7 in experiment [1], 100000 in experiment [5], 10 in [8] and 2 in [15]. Also, the MIC50 in experiment [2] was determined as 0.15 µM. In experiment [2], this compound showed an MIC90 of 0.26 µM. Further, the MBC in experiment [3] was found to be 0.64 µM. Further, the result in experiment [4], in [6], in [13], in experiment [16], in experiment [17] and in experiment [18] was Active. The result in experiment [19], in experiment [20] and in [21] was Active. Also, the Ratio in experiment [7] is < 2. In addition, the result in the experiment with Cell membrane [9], in the experiment on Cell membrane [10] and with Cell membrane [11] was inactive. The Activity entry in experiment [12] and in experiment [14] was “Dose-Dependent Effect” each time.
Consider `CCCCCCCn1c2c([n+](CCCCC)c1C)C(=O)c1ccccc1C2=O.[Br-]`, for which the MIC50 in experiment [2] came out at 0.16 µM. The compound also registered an MIC90 in experiment [2] of 0.27 µM. Also, the MBC in [3] amounted to 0.64 µM. Moreover, in [4], the outcome was Active. Further, the “fold change (FC)” value came to 100000 in experiment [5], 10 in experiment [8] and 2 in [15]. Moreover, in experiment [7], the Ratio was < 2. In addition, the result with Cell membrane [9], in the experiment with Cell membrane [10] and with Cell membrane [11] was inactive. Besides, the Activity result in experiment [12] and in experiment [14] was “Dose-Dependent Effect” each time.
`CCCCn1c2c([n+](C3CCC4(CCCCC4)CC3)c1C)C(=O)c1ccccc1C2=O.[Br-]` displayed an MIC50 in [2] of 0.13 µM. The compound also came in with an MIC90 in experiment [2] of 0.3 µM. Moreover, in experiment [3], the MBC turned out to be 1.3 µM. Besides, in [7], the Ratio was < 2. The result (with Cell membrane [11]; in experiment [16]) was inactive. The Activity result in experiment [12] and in [14] was “Dose-Dependent Effect” in each case. The result in experiment [13] and in experiment [17] was Active.

The MIC50 is the lowest concentration that inhibits either 50% of growth or 50% of the strains tested, depending on the study. Low values mean greater potency, high ones weaker potency. Broadly, the MIC90 is the lowest concentration that inhibits either 90% of growth or 90% of the strains tested, depending on the study. Read a high MIC90 as lower susceptibility.
